# Results taken from ChEMBL document CHEMBL5727173, “Phenyl-(aza)cycloalkyl carboxylic acid GPR120 modulators” (2019).
# Target: T1, Free fatty acid receptor 4 (Homo sapiens, UniProt Q5NUL3)
# T1 sequence (Q5NUL3 whole entry): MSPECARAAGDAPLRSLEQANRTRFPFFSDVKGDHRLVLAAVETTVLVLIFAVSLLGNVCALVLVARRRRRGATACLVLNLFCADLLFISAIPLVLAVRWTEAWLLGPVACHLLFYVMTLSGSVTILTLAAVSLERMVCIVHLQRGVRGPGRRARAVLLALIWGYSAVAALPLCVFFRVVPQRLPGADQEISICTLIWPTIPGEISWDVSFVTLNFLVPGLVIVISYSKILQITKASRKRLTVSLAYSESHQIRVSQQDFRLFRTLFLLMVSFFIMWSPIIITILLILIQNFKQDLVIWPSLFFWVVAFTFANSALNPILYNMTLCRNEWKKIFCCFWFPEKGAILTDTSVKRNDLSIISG
# Test: GPR120 pERK AlphaScreen SureFire Assay: The human and mouse GPR120-mediated intracellular phosphorylated ERK assays were also established using CHO-K1 cells stably transfected with the short form of human or mouse GPR120 receptor. Cells were cultured in growth medium consisting of F-12 media (Invitrogen Cat. #11765) with 5% Charcoal/Dextran FBS (Invitrogen Cat. #12676-029) and 500 μg/mL GENETICIN® (Life Technologies Cat. #10131-027). Cells were cryo preserved at a concentration of 3×10^6 cells/mL, in 70% F-12, 20% Charcoal/Dextran FBS and 10% DMSO, and frozen in liquid nitrogen at a low passage number.For the pERK assay, 3×10^6 cells/mL cryopreserved human and mouse cells were thawed rapidly in a 37° C. water bath and added to a T-225 flask containing 50 mL growth medium. The flasks were placed in a tissue culture incubator overnight (37° C., 5% CO2). The next day, cells were harvested with trypsin (Gibco Cat. #25300-054), resuspended in serum-containing growth medium and counted using a Cellometer and volume adjusted to a concentration of 0.5×10^6 cells/mL. Cells were plated into 384-well clear bottom tissue culture plates (BD Cat. #353962) at 50 μL/well, for a density of 25,000 cells/well using a MULTIDROP® and incubated for 16-18 hours (overnight) at 37° C. with 5% CO2. The next day, cells were washed once with 50 μL of PBS without Ca++/Mg++ (Gibco Cat. #14190-036) and serum starved in 25 μL of F-12 media without any serum or antibiotics for 2 hours at 37° C.
# Type: cell-based
row,Structure (SMILES),EC50
1,O=C(O)CCCCc1ccc(N2CCCC(Oc3ccccc3)C2)cc1 (stereo not given),0.42 µM
2,O=C(O)CCCCc1ccc(C2CCCC(Nc3ccccc3)C2)cc1 (stereo not given),3.03 µM
3,O=C(O)CCCCc1ccc(N2CCC[C@@H](Oc3ccccc3)C2)cc1,0.78 µM

# More lines, in order of falling EC50, values ahead:
row,EC50,Structure (SMILES)
1,3.55 µM,O=C(O)CCCCc1ccc(N2CCCCC(Oc3ccc(F)cc3)C2)cc1 (stereo not given)
2,2.42 µM,O=C(O)COCCc1ccc(N2CCCC(Oc3ccccc3)C2)cc1 (stereo not given)
